This passage reports IC50 results from patent US10669268B2, “Bicyclic derivatives” (Hoffmann-La Roche Inc., priority 2012, dated 2020).

The target in this assay is ATX (human His-tagged) (Homo sapiens (Human), UniProt Q13822). Kind of assay: Human ATX enzyme inhibition assay (fluorescence quenching, MR121 substrate). Format: biochemical. The note with it: 30 nM ATX, 1 μM MR121 substrate, 30° C., pH 8.0. The protocol: Human ATX Enzyme Inhibition Assay
Assay working solutions were made as follows:
Assay buffer (50 mM Tris-HCl, 140 mM NaCl, 5 mM KCl, 1 mM CaCl2, 1 mM MgCl2, 0.01% Triton-X-100, pH 8.0;
MR121 substrate solution: MR121 substrate stock solution (800 μM MR121 substrate in DMSO), diluted to 2-5× final concentration in assay buffer.
10 μL of MR121 substrate solution was added (1 μM final concentration), mixed 30 times and then incubated for 15 minutes at 30° C.
With `O=C(OCc1cc(Cl)cc(Cl)c1)N1CC[C@@H]2CN(C(=O)c3ccc4[nH]nnc4c3)C[C@H]2C1` (relative stereo) [Example 1.09, trans-3,5-dichlorobenzyl 2-(1H-benzo[d][1,2,3]triazole-5-carbonyl)hexahydro-1H-pyrrolo[3,4-c]pyridine-5(6H)-carboxylate], the concentration for half-maximal inhibition (IC50) (as a rule, the concentration that inhibits the measured activity by half) came out at 9 nM. This counts as single-digit nanomolar.

As for `O=C(OCc1cc(Cl)cc(Cl)c1)N1CC[C@H]2CN(C(=O)c3ccc4[nH]nnc4c3)C[C@H]2C1` (relative stereo) [Example 1.10, cis-3,5-dichlorobenzyl 2-(1H-benzo[d][1,2,3]triazole-5-carbonyl)hexahydro-1H-pyrrolo[3,4-c]pyridine-5(6H)-carboxylate], the IC50 worked out at 78 nM. Against the preceding compound, the IC50 is about 8.7-fold higher.

`CS(=O)(=O)c1cc(Cl)cc(COC(=O)N2CC[C@@H]3CN(C(=O)c4ccc5[nH]nnc5c4)C[C@H]3C2)c1` (relative stereo) [Example 1.23, trans-2-(1H-benzotriazole-5-carbonyl)-octahydro-pyrrolo[3,4-c]pyridine-5-carboxylic acid 3-chloro-5-methanesulfonyl-benzyl ester]: the IC50 came out at 58 nM.

On to `O=C(OCc1ccc(OC(F)(F)F)cc1)N1CC[C@@H]2CN(C(=O)c3ccc4[nH]nnc4c3)C[C@H]2C1` (relative stereo) [Example 1.24, trans-2-(1H-benzotriazole-5-carbonyl)-octahydro-pyrrolo[3,4-c]pyridine-5-carboxylic acid 4-trifluoromethoxy-benzyl ester], for which the IC50 was 13 nM.

Regarding `O=C(COc1ccc(OC(F)(F)F)cc1)N1CC[C@@H]2CN(C(=O)c3ccc4[nH]nnc4c3)C[C@H]2C1` (relative stereo) [Example 1.25, 1-[trans-2-(1H-benzotriazole-5-carbonyl)-octahydro-pyrrolo[3,4-c]pyridin-5-yl]-2-(4-trifluoromethoxy-phenoxy)-ethanone], the IC50 was found to be 114 nM.

`O=C(OCc1ccc(F)cc1C(F)(F)F)N1CC[C@@H]2CN(C(=O)c3ccc4[nH]nnc4c3)C[C@H]2C1` (relative stereo) [Example 1.30, trans-2-(1H-benzotriazole-5-carbonyl)-octahydro-pyrrolo[3,4-c]pyridine-5-carboxylic acid 4-fluoro-2-trifluoromethyl-benzyl ester] came in with an IC50 of 20 nM. This IC50 is about 5.7-fold lower than that of the compound before.

Regarding `O=C(OCc1ccc(C(F)(F)F)cc1C1CC1)N1CC[C@@H]2CN(C(=O)c3ccc4[nH]nnc4c3)C[C@H]2C1` (relative stereo) [Example 1.31, trans-2-(1H-benzotriazole-5-carbonyl)-octahydro-pyrrolo[3,4-c]pyridine-5-carboxylic acid 2-cyclopropyl-4-trifluoromethyl-benzyl ester], the midpoint of inhibition, the IC50, lay at 21 nM. The IC50 values of the last two compounds are within 1.5-fold of each other.

As for `COc1cc(OC(F)(F)F)ccc1COC(=O)N1CC[C@@H]2CN(C(=O)c3ccc4[nH]nnc4c3)C[C@H]2C1` (relative stereo) [Example 1.33, trans-2-(1H-benzotriazole-5-carbonyl)-octahydro-pyrrolo[3,4-c]pyridine-5-carboxylic acid 2-methoxy-4-trifluoromethoxy-benzyl ester], the IC50 amounted to 21 nM.

Turning to `O=C(OCc1cc(Cl)cc(Cl)c1)N1CC[C@@H]2CN(C(=O)c3ccc4[nH]c(=O)oc4c3)C[C@H]2C1` (relative stereo) [Example 2, trans-3,5-Dichlorobenzyl 2-(2-oxo-2,3-dihydrobenzo[d]oxazole-6-carbonyl)hexahydro-1H-pyrrolo[3,4-c]pyridine-5(6H)-carboxylate], the IC50 came out at 10 nM.

With `CS(=O)(=O)c1cc(COC(=O)N2C[C@H]3CCN(C(=O)c4ccc5[nH]nnc5c4)C[C@@H]3C2)cc(C(F)(F)F)c1` (relative stereo) [Example 4.01, trans-5-(1H-benzotriazole-5-carbonyl)-octahydro-pyrrolo[3,4-c]pyridine-2-carboxylic acid 3-methanesulfonyl-5-trifluoromethyl-benzyl ester], the IC50 stood at 41 nM. This IC50 is about 4.1-fold higher than that of the compound before.

`O=C(OCc1cc(Cl)cc(Cl)c1)N1C[C@@H]2CCN(C(=O)c3ccc4[nH]nnc4c3)C[C@@H]2C1` (relative stereo) [Example 4.08, cis-3,5-dichlorobenzyl 5-(1H-benzo[d][1,2,3]triazole-5-carbonyl)hexahydro-1H-pyrrolo[3,4-c]pyridine-2(3H)-carboxylate] yielded an IC50 of 47 nM. The IC50 values of the last two compounds are within 1.5-fold of each other.

As to `O=C(OCc1cc(Cl)cc(Cl)c1)N1C[C@H]2CCN(C(=O)c3ccc4[nH]nnc4c3)C[C@@H]2C1` (relative stereo) [Example 4.10, trans-3,5-dichlorobenzyl 5-(1H-benzo[d][1,2,3]triazole-5-carbonyl)hexahydro-1H-pyrrolo[3,4-c]pyridine-2(3H)-carboxylate], the IC50 was 4 nM.

The compound `O=C(OCc1cc(Cl)cc(Cl)c1)N1C[C@H]2CCN(C(=O)c3ccc4[nH]nnc4c3)C[C@@H]2C1` (relative stereo) [Example 12A, trans-3,5-dichlorobenzyl 5-(1H-benzo[d][1,2,3]triazole-5-carbonyl)-hexahydro-lH-pyrrolo[3,4-c]pyridine-2(3H)-carboxylate] returned an IC50 of 11 nM.

Compound `O=C(OCc1cc(Cl)cc(Cl)c1)N1C[C@H]2CCN(C(=O)c3ccc4[nH]nnc4c3)C[C@@H]2C1` (relative stereo) [Example 12B, trans-3,5-dichlorobenzyl 5-(1H-benzo[d][1,2,3]triazole-5-carbonyl)-hexahydro-lH-pyrrolo[3,4-c]pyridine-2(3H)-carboxylate] displayed an IC50 of 5 nM. Against the preceding compound, the IC50 is about 2.2-fold lower.

In turn, `O=C(/C=C/c1cc(Cl)cc(Cl)c1)N1CC[C@@H]2CN(C(=O)c3ccc4[nH]nnc4c3)C[C@H]2C1` (relative stereo) [Example 13, (E)-1-[trans-2-(1H-Benzotriazole-5-carbonyl)-octahydro-pyrrolo[3,4-c]pyridin-5-yl]-3-(3,5-dichloro-phenyl)-prop-2-en-1-one] displayed a half-inhibitory concentration (IC50) of 57 nM.

Take `O=C(c1ccc2[nH]nnc2c1)N1CC[C@@H]2CN(c3nnc(-c4ccc(Cl)cc4)o3)C[C@H]2C1` (relative stereo) [Example 14, (1H-Benzotriazol-5-yl)-{trans-2-[5-(4-chloro-phenyl)-[1,3,4]oxadiazol-2-yl]-octahydro-pyrrolo[3,4-c]pyridin-5-yl}-methanone]: the IC50 worked out at 926 nM.

The compound `O=C(CCc1ccc(OC(F)(F)F)cc1)N1CC[C@@H]2CN(C(=O)c3ccc4[nH]nnc4c3)C[C@H]2C1` (relative stereo) [Example 17.15, 1-[trans-2-(1H-benzotriazole-5-carbonyl)-octahydro-pyrrolo[3,4-c]pyridin-5-yl]-3-(4-trifluoromethoxy-phenyl)-propan-1-one] displayed an IC50 of 47 nM. This IC50 lies about 20-fold lower than the previous one.

`O=C(CCc1ccc(OC(F)(F)F)cc1)N1CC[C@@H]2CN(Cc3ccc4[nH]nnc4c3)C[C@H]2C1` (relative stereo) [Example 17.16, 1-[trans-2-(1H-benzotriazol-5-ylmethyl)-octahydro-pyrrolo[3,4-c]pyridin-5-yl]-3-(4-trifluoromethoxy-phenyl)-propan-1-one] yielded an IC50 of 309 nM.

In turn, `O=C(OCc1cc(Cl)cc(Cl)c1)N1CC[C@@H]2CN(C(=O)c3ccc4[nH]nnc4c3)C[C@H]2C1` (single isomer, unassigned) [Example 11A, trans-3,5-dichlorobenzyl 2-(1H-benzo[d][1,2,3]triazole-5-carbonyl)-hexahydro-1H-pyrrolo[3,4-c]pyridine-5(6H)-carboxylate] displayed an IC50 of 22 nM.

In turn, `O=C(OCc1cc(Cl)cc(Cl)c1)N1CC[C@@H]2CN(C(=O)c3ccc4[nH]nnc4c3)C[C@H]2C1` (single isomer, unassigned) [Example 11B, trans-3,5-dichlorobenzyl 2-(1H-benzo[d][1,2,3]triazole-5-carbonyl)-hexahydro-1H-pyrrolo[3,4-c]pyridine-5(6H)-carboxylate] came in with an IC50 of 9 nM.

Compound `O=C(/C=C/c1ccc(OC(F)(F)F)cc1)N1C[C@H]2CCN(C(=O)c3ccc4[nH]nnc4c3)C[C@@H]2C1` (single isomer, unassigned) [Example 15.25] had an IC50 of 44 nM.

As to `O=C(/C=C/c1ccc(OC(F)(F)F)cc1)N1C[C@@H]2CN(C(=O)c3ccc4[nH]nnc4c3)CC[C@H]2C1` (single isomer, unassigned) [Example 15.26], it took 8 nM to reach half-maximal inhibition (IC50).

`O=C(/C=C/c1ccc(OC(F)F)cc1)N1C[C@H]2CCN(C(=O)c3ccc4[nH]nnc4c3)C[C@@H]2C1` (single isomer, unassigned) [Example 15.32]: inhibition was half-maximal at 19 nM (IC50).

With `N#Cc1ccc(/C=C/C(=O)N2C[C@H]3CCN(C(=O)c4ccc5[nH]nnc5c4)C[C@@H]3C2)cc1` (single isomer, unassigned) [Example 15.33], it took 328 nM to reach half-maximal inhibition (IC50).

The compound `O=C1NC2CCC(C(=O)N3CC4CCN(C(=O)/C=C/c5ccc(OC(F)(F)F)cc5)CCC4C3)CC2O1` (stereo in doubt) [Example 1.16, (3aSR,6SR,7aSR)-6-{(3aR,8aS)-6-[(E)-3-(4-trifluoromethoxy-phenyl)-acryloyl]-octahydro-pyrrolo[3,4-d]azepine-2-carbonyl}-hexahydro-benzooxazol-2-one] showed an IC50 of 382 nM.

As to `O=C(c1ccc(-c2ccc(Cl)cc2)cc1)N1C[C@H]2CN(C(=O)c3ccc4[nH]nnc4c3)C[C@@H]2C1` (stereo in doubt) [Example 19.13, (1H-benzotriazol-5-yl)-[(3aS,6aS)-5-(4′-chloro-biphenyl-4-carbonyl)-hexahydro-pyrrolo[3,4-c]pyrrol-2-yl]-methanone], the IC50 is 10 nM. This IC50 is about 38-fold lower than that of the compound before.

Regarding `O=C(/C=C/c1ccc(OC(F)(F)F)cc1)N1CC[C@@H]2CN(C(=O)C3CCc4[nH]nnc4C3)C[C@@H]2CC1` (stereo partly drawn) [Example 1, (E)-1-[(3aS,8aR)-2-(4,5,6,7-Tetrahydro-1H-benzotriazole-5-carbonyl)-octahydro-pyrrolo[3,4-d]azepin-6-yl]-3-(4-trifluoromethoxy-phenyl)-prop-2-en-1-one], the IC50 came out at 8 nM.
